Measured values: the supplement of paper PMC9663587

Columns and labels:
Assay in all cases: GRmax, 72 h; higher = less effect;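 also: breast cell lines in 384-well plates, nine doses across a 10^4 range, Dye Drop imaging of viable cells vs DMSO and time-zero plates, GR 0 means no net growth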
HCC38 = tested on: HCC38
UACC893 = tested on: UACC893
HCC1937 = tested on: HCC1937
MDAMB436 = tested on: MDAMB436
HCC1395 = tested on: HCC1395
SUM149 = tested on: SUM149
HTERT_HME1 = tested on: HTERT_HME1
SUM1315 = tested on: SUM1315
PDXHCI002 = tested on: PDXHCI002
CAL851 = tested on: CAL851
SUM190PT = tested on: SUM190PT

| Structure (SMILES) | GRmax, 72 h (HCC38) [GR] | GRmax, 72 h (UACC893) [GR] | GRmax, 72 h (HCC1937) [GR] | GRmax, 72 h (MDAMB436) [GR] | GRmax, 72 h (HCC1395) [GR] | GRmax, 72 h (SUM149) [GR] | GRmax, 72 h (HTERT_HME1) [GR] | GRmax, 72 h (SUM1315) [GR] | GRmax, 72 h (PDXHCI002) [GR] | GRmax, 72 h (CAL851) [GR] | GRmax, 72 h (SUM190PT) [GR] |
| --- | --- | --- | --- | --- | --- | --- | --- | --- | --- | --- | --- |
| CC(C)n1nc(-c2ccc3oc(N)nc3c2)c2c(N)ncnc21 [INK128/MLN0128] (max 3.162 µM) | -0.0087 | -0.483 | 0.358 | 0.211 | -0.0258 | 0.268 | 0.197 | 0.0256 | 0.229 | 0.016 | -0.425 |
| O=C1NC(=NCc2cccs2)SC1=Cc1ccc2ncccc2c1 [R0-3306] (max 10 µM) | -0.239 | 0.376 | -0.117 | 0.0289 | -0.235 | -0.171 | -0.107 | -0.252 | 0.0529 | -0.0866 | -0.11 |
| COc1cc2c(Oc3ccc4[nH]c(C)cc4c3F)ncnc2cc1OCCCN1CCCC1 [Cediranib/AZD2171] (max 10 µM) | -0.204 | -0.458 | 0.278 | -0.382 | -0.482 | 0.0682 | 0.0275 | -0.228 | -0.432 | -0.238 | 0.893 |
| CN(C)CC[C@H](CSc1ccccc1)Nc1ccc(S(=O)(=O)NC(=O)c2ccc(N3CCN(Cc4ccccc4-c4ccc(Cl)cc4)CC3)cc2)cc1[N+](=O)[O-] [ABT-737] (max 10 µM) | -0.421 | 0.49 | 0.269 | 0.815 | 0.861 | -0.28 | 0.495 | 0.306 | 0.146 | 0.934 | -0.475 |
| COc1cc(N2CCN(C)CC2)ccc1Nc1ncc2c(n1)N(C)c1ccccc1C(=O)N2CC(F)(F)F [FMF-03-146-1] | 0.9 | 0.987 | 0.846 | 0.89 | 0.64 | 0.971 | 0.785 | 0.824 | 1.02 | 0.916 | 0.886 |
| CCc1cncnc1N1CCN(Cc2nc3ccc(C(F)(F)F)cc3[nH]2)CC1 (max 10 µM) | 0.976 | 0.351 | 0.769 | 0.194 | 0.659 | 0.746 | 0.455 | 0.595 | 0.873 | 1.02 | 0.461 |
| CO[C@H]1C[C@@H]2CC[C@@H](C)[C@@](O)(O2)C(=O)C(=O)N2CCCC[C@H]2C(=O)O[C@H]([C@H](C)C[C@@H]2CC[C@@H](OCCO)[C@H](OC)C2)CC(=O)[C@H](C)/C=C(\C)[C@@H](O)[C@@H](OC)C(=O)[C@H](C)C[C@H](C)/C=C/C=C/C=C/1C [Everolimus] (max 10 µM) | 0.473 | 0.159 | 0.632 | 0.615 | 0.404 | 0.737 | 0.489 | 0.402 | 0.987 | 0.371 | 0.354 |
| CN1CCN(C(=O)c2ccc3cc(CCNc4ncnc5ccc(C#N)cc45)ccc3c2)CC1 [senexin b] (max 10 µM) | 0.614 | 0.71 | 0.394 | 0.429 | 0.307 | 0.747 | 0.748 | 0.656 | 1.06 | 0.615 | 0.248 |
| C[C@@H]1COCCN1c1cc(C2([S@](C)(=N)=O)CC2)nc(-c2cc[nH]c3nccc2-3)n1 [AZD6738] (max 10 µM) | -0.271 | 0.429 | 0.298 | 0.363 | -0.284 | -0.297 | 0.287 | -0.169 | 0.734 | 0.144 | -0.036 |
| COc1ccc2c(c1)[C@]1(C[C@H]1c1ccc3c(/C=C/c4ccc(CN5C[C@@H](C)O[C@@H](C)C5)cc4)n[nH]c3c1)C(=O)N2 | -0.403 | 0.138 | -0.149 | -0.226 | -0.178 | -0.0713 | -0.106 | -0.232 | 0.107 | -0.11 | 0.12 |
| CC(=O)O[C@H]1C(=O)[C@@]2(C)[C@H]([C@H](OC(=O)c3ccccc3)[C@]3(O)C[C@H](OC(=O)[C@H](O)[C@@H](NC(=O)c4ccccc4)c4ccccc4)C(C)=C1C3(C)C)[C@]1(OC(C)=O)CO[C@@H]1C[C@@H]2O [Paclitaxel] (max 1 µM) | -0.308 | -0.384 | 0.0104 | -0.218 | -0.458 | -0.257 | -0.224 | -0.326 | -0.512 | -0.346 | -0.283 |
| CCCCOc1c(C(=O)c2c(F)cc(C)cc2F)c[nH]c2nncc1-2 (max 10 µM) | -0.0129 | 0.117 | -0.0492 | 0.264 | -0.214 | 0.0975 | -0.0276 | -0.296 | 0.217 | -0.012 | -0.0112 |
| Cc1nc(-c2cn3c(n2)-c2ccc(-c4cnn(C(C)(C)C(N)=O)c4)cc2OCC3)n(C(C)C)n1 [Taselisib/GDC0032] (max 10 µM) | 0.0628 | -0.898 | 0.121 | 0.243 | -0.0177 | -0.224 | 0.0336 | 0.0942 | -0.137 | -0.0171 | -0.253 |
| Cc1nn(C)c(COc2ccc(N3CCN(S(=O)(=O)N(C)C)CC3)cc2)c1-c1cccc2c(CCCOc3cccc4ccccc34)c(C(=O)O)n(CCN3CCOCC3)c12 (max 10 µM) | 0.887 | 0.763 | 0.724 | 0.873 | 0.859 | 0.391 | -0.422 | 0.74 | 0.981 | 1.01 | 0.114 |
| C=CC(=O)Nc1ccc(C(=O)Nc2[nH]nc3c2CN(C(=O)N[C@H](CN(C)C)c2ccccc2)C3(C)C)cc1 [YKL-5-124] (max 10 µM) | -0.39 | -0.626 | -0.205 | -0.0111 | -0.267 | -0.104 | -0.144 | -0.406 | -0.129 | -0.592 | -0.39 |
| Cc1cc(C(C)Nc2ccccc2)c2nc(N3CCOCC3)cc(=O)n2c1 (configuration not stated) [TGX221] (max 10 µM) | 0.952 | 0.939 | 0.838 | 0.722 | 0.458 | 1.02 | 1.03 | 0.705 | 0.855 | 0.99 | 0.989 |
| CC1(N)CCN(c2cnc(-c3cccc(Cl)c3Cl)c(N)n2)CC1 [SHP099] (max 10 µM) | 0.523 | 0.703 | 0.797 | 0.941 | 0.548 | 0.866 | 0.606 | 0.523 | 0.63 | 0.632 | 0.749 |
